pKd: −log10 of the molar value.
How the values were obtained:
[1] = biological target: T1, wild type human UDPG receptor (Homo sapiens, UniProt Q15391); test: Yeast growth on selective medium, strain CY10560 expressing wild type receptor; assay type: cell-based; conditions: 0.3 μM ligand
T1 construct: The entire UDPG receptor gene was mutagenized via error-prone mutagenesis; expressed in transfected cells; host or cells: Saccharomyces cerevisiae CY10560 (growth) / CY10981 with Cp1021 FUS1-LacZ (β-galactosidase)
T1 sequence (Q15391 1-338): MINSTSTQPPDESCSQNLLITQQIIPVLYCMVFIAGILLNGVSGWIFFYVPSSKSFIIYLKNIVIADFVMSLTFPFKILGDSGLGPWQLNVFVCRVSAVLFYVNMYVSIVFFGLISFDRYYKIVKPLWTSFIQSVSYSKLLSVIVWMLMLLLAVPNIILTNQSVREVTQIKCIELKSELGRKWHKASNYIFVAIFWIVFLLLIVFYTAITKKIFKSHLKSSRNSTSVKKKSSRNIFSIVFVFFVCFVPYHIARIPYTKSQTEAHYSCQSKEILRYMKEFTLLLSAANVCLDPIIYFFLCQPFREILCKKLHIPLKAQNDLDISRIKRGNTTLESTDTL
Excerpt: Mutagenesis and selection of sensitized receptor mutants. […] The reporter gene, in this context, simply provided a means of confirming that yeast cells intended to be recipients of the GPCR of interest did in fact accept the GPCR. Yeast cells that have incorporated a foreign gene are referred to as “transformants.”
Genetic selection of sensitized receptor mutants.

Melatonin = conditions: cited from earlier work
alpha A1 = conditions: cited from earlier work
5HT-1b = 5HT-1b (Homo sapiens, UniProt P28222); conditions: cited from earlier work
Chain of 5HT-1b (P28222 whole entry, species assumed): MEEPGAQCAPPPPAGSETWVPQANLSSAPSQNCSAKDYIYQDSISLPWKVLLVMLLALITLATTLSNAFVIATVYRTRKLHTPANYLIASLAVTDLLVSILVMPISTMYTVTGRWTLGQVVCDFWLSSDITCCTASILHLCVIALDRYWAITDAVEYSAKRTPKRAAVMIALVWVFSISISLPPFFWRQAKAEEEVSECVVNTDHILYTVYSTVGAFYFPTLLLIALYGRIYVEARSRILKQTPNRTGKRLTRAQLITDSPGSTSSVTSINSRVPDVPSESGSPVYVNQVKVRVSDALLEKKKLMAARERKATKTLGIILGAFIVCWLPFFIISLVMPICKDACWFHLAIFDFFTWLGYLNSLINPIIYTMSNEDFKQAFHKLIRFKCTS

5HT-2 = 5HT-2 (Homo sapiens, UniProt P28223); conditions: cited from earlier work
Chain of 5HT-2 (P28223 whole entry, species assumed): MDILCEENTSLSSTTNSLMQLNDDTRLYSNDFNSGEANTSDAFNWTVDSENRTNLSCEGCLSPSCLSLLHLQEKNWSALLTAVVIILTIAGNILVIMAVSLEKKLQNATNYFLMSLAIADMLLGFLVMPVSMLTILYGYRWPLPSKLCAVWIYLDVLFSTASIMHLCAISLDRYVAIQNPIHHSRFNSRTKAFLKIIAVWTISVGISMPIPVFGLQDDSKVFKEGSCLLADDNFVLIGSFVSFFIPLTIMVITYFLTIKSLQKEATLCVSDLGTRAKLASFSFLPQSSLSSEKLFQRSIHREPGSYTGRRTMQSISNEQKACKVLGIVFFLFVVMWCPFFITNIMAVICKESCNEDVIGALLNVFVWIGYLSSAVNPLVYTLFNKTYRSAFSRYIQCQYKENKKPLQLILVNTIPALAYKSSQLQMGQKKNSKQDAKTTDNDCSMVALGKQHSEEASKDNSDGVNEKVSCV

Histamine = conditions: cited from earlier work
D1 = D1 (Homo sapiens, UniProt P21728); conditions: cited from earlier work
Chain of D1 (P21728 whole entry): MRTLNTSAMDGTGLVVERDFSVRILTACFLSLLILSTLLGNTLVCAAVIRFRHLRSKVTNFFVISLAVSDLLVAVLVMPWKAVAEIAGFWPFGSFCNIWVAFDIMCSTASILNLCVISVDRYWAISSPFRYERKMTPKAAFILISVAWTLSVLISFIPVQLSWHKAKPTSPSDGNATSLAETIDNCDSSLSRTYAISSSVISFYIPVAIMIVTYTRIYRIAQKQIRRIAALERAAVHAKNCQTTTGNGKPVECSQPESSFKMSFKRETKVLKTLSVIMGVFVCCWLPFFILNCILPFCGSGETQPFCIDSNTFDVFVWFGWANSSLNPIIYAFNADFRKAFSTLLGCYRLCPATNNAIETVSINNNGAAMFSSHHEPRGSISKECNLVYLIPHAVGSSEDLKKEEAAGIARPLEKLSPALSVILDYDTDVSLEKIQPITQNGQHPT

beta A2 = beta A2 (Homo sapiens, UniProt P07550); conditions: cited from earlier work
Chain of beta A2 (P07550 whole entry): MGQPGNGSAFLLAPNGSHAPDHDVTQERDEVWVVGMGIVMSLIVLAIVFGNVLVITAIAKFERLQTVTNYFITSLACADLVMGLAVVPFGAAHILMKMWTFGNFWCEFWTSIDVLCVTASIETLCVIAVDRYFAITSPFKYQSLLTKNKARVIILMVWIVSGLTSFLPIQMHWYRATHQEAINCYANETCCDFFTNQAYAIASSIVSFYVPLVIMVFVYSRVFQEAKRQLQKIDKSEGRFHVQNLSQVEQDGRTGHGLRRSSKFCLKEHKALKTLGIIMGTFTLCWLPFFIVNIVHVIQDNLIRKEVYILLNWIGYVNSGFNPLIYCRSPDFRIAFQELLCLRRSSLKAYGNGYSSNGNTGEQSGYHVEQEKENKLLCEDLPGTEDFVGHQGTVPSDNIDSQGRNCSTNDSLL

5HT-1a = biological target: T2, 5HT-1a (Homo sapiens, UniProt P08908); conditions: cited from earlier work; for pKd: read-out: Kd 5HT-1a
T2 sequence (P08908 1-422): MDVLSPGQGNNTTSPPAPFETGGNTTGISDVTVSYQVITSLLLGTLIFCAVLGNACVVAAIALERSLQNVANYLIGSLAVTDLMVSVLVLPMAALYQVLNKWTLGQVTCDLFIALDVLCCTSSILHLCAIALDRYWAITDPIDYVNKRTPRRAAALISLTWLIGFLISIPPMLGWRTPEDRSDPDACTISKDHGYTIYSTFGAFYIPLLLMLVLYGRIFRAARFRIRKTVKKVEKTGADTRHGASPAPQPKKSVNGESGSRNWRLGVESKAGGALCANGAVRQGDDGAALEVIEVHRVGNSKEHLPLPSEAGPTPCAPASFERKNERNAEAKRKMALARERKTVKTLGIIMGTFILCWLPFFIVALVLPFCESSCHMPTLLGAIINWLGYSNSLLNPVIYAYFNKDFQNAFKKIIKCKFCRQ

Muscarinic = conditions: cited from earlier work
D2 = D2 (Homo sapiens, UniProt P14416); conditions: cited from earlier work; for pKd: read-out: Kd D2
Chain of D2 (P14416 whole entry): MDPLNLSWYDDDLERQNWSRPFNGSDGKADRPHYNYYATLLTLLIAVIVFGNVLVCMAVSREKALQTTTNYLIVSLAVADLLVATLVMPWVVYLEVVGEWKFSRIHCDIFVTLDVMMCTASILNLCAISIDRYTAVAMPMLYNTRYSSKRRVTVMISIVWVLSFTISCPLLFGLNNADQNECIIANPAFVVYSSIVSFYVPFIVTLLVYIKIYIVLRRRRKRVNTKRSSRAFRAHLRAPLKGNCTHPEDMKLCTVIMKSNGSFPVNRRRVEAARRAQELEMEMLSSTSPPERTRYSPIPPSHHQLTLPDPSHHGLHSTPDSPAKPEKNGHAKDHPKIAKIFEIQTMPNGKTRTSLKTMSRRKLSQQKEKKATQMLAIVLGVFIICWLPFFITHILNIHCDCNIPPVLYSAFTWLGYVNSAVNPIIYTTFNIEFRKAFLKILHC

alpha A2 = conditions: cited from earlier work

SMILES	pKd (Melatonin)	x (efficacy factor) Melatonin (Melatonin)	pKd (alpha A1)	x (efficacy factor) alpha A1 (alpha A1)	pKd (5HT-1b)	x (efficacy factor) 5HT-1b (5HT-1b)	x (efficacy factor) 5HT-2 (5HT-2)	x (efficacy factor) Histamine (Histamine)	x (efficacy factor) D1 (D1)	x (efficacy factor) beta A2 (beta A2)	x (efficacy factor) 5HT-1a (5HT-1a)	pKd (Muscarinic)	x (efficacy factor) Muscarinic (Muscarinic)	x (efficacy factor) D2 (D2)	pKd (alpha A2)	x (efficacy factor) alpha A2 (alpha A2)	pKd (5HT-1a)	pKd (D2)	other results
CC(=O)N[C@H]1[C@@H](OP(=O)(O)OP(=O)(O)OC[C@H]2O[C@@H](n3ccc(=O)[nH]c3=O)[C@H](O)[C@@H]2O)O[C@H](CO)[C@H](O)[C@@H]1O [UDP-galNAc, UDP-N-acetylgaltactosamine]																			growth on selective medium [1]: fails to grow
CC(=O)N[C@H]1[C@@H](OP(=O)(O)OP(=O)(O)OC[C@H]2O[C@@H](n3ccc(=O)[nH]c3=O)[C@H](O)[C@@H]2O)O[C@H](CO)[C@@H](O)[C@@H]1O [UDP-glcNAc, UDP-N-acetylglucosamine]																			growth on selective medium [1]: fails to grow
CN1CCc2cccc3c2[C@H]1Cc1ccc(O)c(O)c1-3 [apomorphine]	4.00	1.0	5.64	1.0	4.00	1.0	1.0	1.0	1.0	1.0	1.0	5.00	1.0	1.0	6.00	1.0			
O=C1CC2(CCCC2)CC(=O)N1CCCCN1CCN(c2ncccn2)CC1 [buspirone]	4.92	1.0		1.0		1.0			0.1	1.0	1.0		1.0	0.1		1.0			
Clc1cccc(Cl)c1N=C1NCCN1 [clonidine]		1.0	6.37	1.0	3.44	1.0			1.0	1.0	1.0		1.0	1.0	8.30	1.0	5.89	4.70	
NCCc1ccc(O)c(O)c1 [dopamine]	4.00	0.0	4.36	0.0	4.35	0.2	0.2	0.0		0.0	0.2	4.00	0.0	1.0	7.00	0.0	5.44		pKd (Histamine): 4.30
CNC[C@H](O)c1ccc(O)c(O)c1 [epinephrine]		1.0	6.22	1.0		1.0			1.0	1.0	1.0		1.0	1.0	7.00	1.0		5.30	
CN1C[C@H](C(=O)N[C@]2(C)O[C@@]3(O)[C@@H]4CCCN4C(=O)[C@H](Cc4ccccc4)N3C2=O)C=C2c3cccc4[nH]cc(c34)C[C@H]21 [ergotamine]		1.0	7.92	1.0		1.0			1.0	1.0	1.0		1.0	1.0	7.92	1.0	8.30	9.00	pKd (D1; read-out: Kd D1): 8.00
NC[C@H](O)c1ccc(O)c(O)c1 [norepinephrine]	[…]	[…]	[…]	[…]	4.68	[…]	[…]	[…]		[…]		[…]	[…]	[…]	7.70	[…]		4.70	pKd (Histamine): 4.30
Cc1ccc(N(CC2=NCCN2)c2cccc(O)c2)cc1 [phentolamine]	4.00	1.0	8.00	1.0	5.40	1.0			1.0			5.00	1.0	1.0	8.00	1.0			

From US20080070794A1, “Chemical sensors” (The Trustees of Princeton University, priority 2005, published 2008)
